Measurements taken from patent US10294202B2, “Pyrrolidinones as herbicides” (FMC Corporation, priority 2013, dated 2019).

Tests used:
corn [1] = assay: Test C pre-/postemergence herbicide test; type: in vivo, Zea mays
Outline: (§1)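 Test compounds, formulated in a surfactant-containing non-phytotoxic solvent blend, are applied to seeded loam/sand soil (preemergence) and to young plants at the 1- to 4-leaf stage in peat-based medium (postemergence). Plants stay 13 to 15 days under greenhouse conditions, then are scored visually relative to controls, 0 = no effect, 100 = complete control.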

corn [2] = assay: Test A pre-/postemergence herbicide test; type: in vivo, Zea mays; details: Postemergence
Outline: (§2)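 Planted in loam–sand blend; treated the same day preemergence by directed soil spray, while separately grown plants at one- to two-leaf stage got postemergence spray. Compared visually with untreated controls after approximately 10 days; 100 means complete control.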

blackgrass = assay: Test C pre-/postemergence herbicide test; type: in vivo, Alopecurus myosuroides
Outline: as §1

lambsquarters = assay: Test C pre-/postemergence herbicide test; type: in vivo, Chenopodium album
Outline: as §1

morningglory = assay: Test C pre-/postemergence herbicide test; type: in vivo, Ipomoea coccinea
Outline: as §1

oilseed rape = assay: Test C pre-/postemergence herbicide test; type: in vivo, Brassica napus
Outline: as §1

soybean = assay: Test C pre-/postemergence herbicide test; type: in vivo, Glycine max
Outline: as §1

nutsedge, yellow = assay: Test C pre-/postemergence herbicide test; type: in vivo, Cyperus esculentus
Outline: as §1

ducksalad = assay: Test B flooded paddy test; type: in vivo, Heteranthera limosa; details: 500 g ai/ha, Flood; scale of 0 to 100 where 0 is no effect and 100 is complete control
Outline: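 Plants grown to 2-leaf stage; pots flooded 3 cm above soil and compound applied directly into paddy water, depth held throughout. Visual rating against untreated controls after 13 to 15 days in greenhouse, 0 (no effect) to 100 (complete control).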

pigweed = assay: Test A pre-/postemergence herbicide test; type: in vivo, Amaranthus retroflexus
Outline: as §2

barnyardgrass = assay: Test A pre-/postemergence herbicide test; type: in vivo, Echinochloa crus-galli
Outline: as §2

[3] = Postemergence, 31 g ai/ha, scale 0 to 100 (0 no effect, 100 complete control)
[4] = Postemergence, 62 g ai/ha, scale 0 (no effect) to 100 (complete control)
[5] = Postemergence, 125 g ai/ha, scale 0 to 100 (0 no effect, 100 complete control)
[6] = Postemergence, 250 g ai/ha, scale 0 to 100 (0 no effect, 100 complete control)
[7] = Preemergence, 31 g ai/ha, scale 0 to 100, 0 is no effect and 100 is complete control
[8] = Preemergence, 62 g ai/ha, scale 0 to 100 (0 no effect, 100 complete control)
[9] = Preemergence, 125 g ai/ha, scale 0 to 100
[10] = Postemergence, 125 g ai/ha, visual rating on 0 to 100 scale (0 no effect, 100 complete control), approx. 10 days
[11] = Postemergence, 500 g ai/ha, 0 to 100 scale (0 no effect, 100 complete control)
[12] = Preemergence, 125 g ai/ha, 0 to 100 scale where 0 is no effect and 100 is complete control
[13] = Preemergence, 500 g ai/ha, visual rating on 0 to 100 scale (0 no effect, 100 complete control)

SMILES: O=C1NCC(c2cccc(OC(F)F)c2)C1C(=O)Nc1ccc(F)c(F)c1F (centres unmarked) [Compound 325]
- Plant response rating, Corn (corn [1]; [3]): 0
- Plant response rating, Corn (corn [1]; [4]): 0
- Plant response rating, Corn (corn [1]; [5]): 10
- Plant response rating, Corn (corn [1]; [6]): 35
- Corn plant response rating (corn [1]; [7]): 10
- Corn plant response rating (corn [1]; [8]): 60
- Plant response rating, Corn (corn [1]; [9]): 70
- Plant response rating (scale of 0 to 100), Corn (corn [1]; Preemergence, 250 g ai/ha): 85
- Plant response rating, Corn (corn [2]; 125 g ai/ha, visual rating on 0 to 100 scale (0 no effect, 100 complete control), approx. 10 days): 80
- Plant response rating, Corn (corn [2]; 500 g ai/ha, 0 to 100 scale (0 no effect, 100 complete control)): 80
- Plant response rating, Blackgrass (blackgrass; [3]): 0
- Plant response rating, Blackgrass (blackgrass; [4]): 0
- Plant response rating, Blackgrass (blackgrass; [5]): 0
- Plant response rating, Blackgrass (blackgrass; [6]): 35
- Blackgrass plant response rating (blackgrass; [7]): 5
- Blackgrass plant response rating (blackgrass; [8]): 50
- Plant response rating, Blackgrass (blackgrass; [9]): 70
- Plant response rating (scale of 0 to 100), Blackgrass (blackgrass; Preemergence, 250 g ai/ha): 85
- Plant response rating, Lambsquarters (lambsquarters; [3]): 20
- Plant response rating, Lambsquarters (lambsquarters; [4]): 45
- Plant response rating, Lambsquarters (lambsquarters; [5]): 70
- Plant response rating, Lambsquarters (lambsquarters; [6]): 65
- Lambsquarters plant response rating (lambsquarters; [7]): 45
- Lambsquarters plant response rating (lambsquarters; [8]): 70
- Plant response rating, Lambsquarters (lambsquarters; [9]): 80
- Plant response rating (scale of 0 to 100), Lambsquarters (lambsquarters; Preemergence, 250 g ai/ha): 80
- Plant response rating, Morningglory (morningglory; [3]): 5
- Plant response rating, Morningglory (morningglory; [4]): 5
- Plant response rating, Morningglory (morningglory; [5]): 35
- Plant response rating, Morningglory (morningglory; [6]): 50
- Morningglory plant response rating (morningglory; [7]): 0
- Morningglory plant response rating (morningglory; [8]): 30
- Plant response rating, Morningglory (morningglory; [9]): 30
- Plant response rating (scale of 0 to 100), Morningglory (morningglory; Preemergence, 250 g ai/ha): 40
- Plant response rating, Oilseed Rape (oilseed rape; [3]): 0
- Plant response rating, Oilseed Rape (oilseed rape; [4]): 0
- Plant response rating, Oilseed Rape (oilseed rape; [5]): 50
- Plant response rating, Oilseed Rape (oilseed rape; [6]): 60
- Oilseed Rape plant response rating (oilseed rape; [7]): 0
- Oilseed Rape plant response rating (oilseed rape; [8]): 65
- Plant response rating, Oilseed Rape (oilseed rape; [9]): 85
- Plant response rating (scale of 0 to 100), Oilseed Rape (oilseed rape; Preemergence, 250 g ai/ha): 90
- Plant response rating, Soybean (soybean; [3]): 0
- Plant response rating, Soybean (soybean; [4]): 0
- Plant response rating, Soybean (soybean; [5]): 0
- Plant response rating, Soybean (soybean; [6]): 0
- Soybean plant response rating (soybean; [8]): 0
- Plant response rating, Soybean (soybean; [9]): 0
- Plant response rating, Nutsedge, Yellow (nutsedge, yellow; [3]): 0
- Plant response rating, Nutsedge, Yellow (nutsedge, yellow; [4]): 0
- Plant response rating, Nutsedge, Yellow (nutsedge, yellow; [5]): 0
- Plant response rating, Nutsedge, Yellow (nutsedge, yellow; [6]): 0
- Nutsedge, Yellow plant response rating (nutsedge, yellow; [7]): 0
- Nutsedge, Yellow plant response rating (nutsedge, yellow; [8]): 0
- Plant response rating, Nutsedge, Yellow (nutsedge, yellow; [9]): 0
- Plant response rating (scale of 0 to 100), Nutsedge, Yellow (nutsedge, yellow; Preemergence, 250 g ai/ha): 0
- Plant response rating, Ducksalad (ducksalad): 100
- Plant response rating, Pigweed (pigweed; [10]): 40
- Plant response rating, Pigweed (pigweed; [11]): 50
- Plant response rating, Pigweed (pigweed; [12]): 30
- Pigweed plant response rating (pigweed; [13]): 60
- Plant response rating, Barnyardgrass (barnyardgrass; [10]): 90
- Plant response rating, Barnyardgrass (barnyardgrass; [11]): 90
- Plant response rating, Barnyardgrass (barnyardgrass; [12]): 90
- Barnyardgrass plant response rating (barnyardgrass; [13]): 90
